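Interpolation was linear, between the two tested concentrations surrounding the appropriate level; five concentrations were tested over 48 hours in 96-well plates. TGI: total growth inhibition.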
Key:
Assay in all cases: NCI anticancer screen, dose series, 48 h
NCI/ADR-RES ovarian = system: NCI/ADR-RES ovarian
A498 renal = system: A498 renal
NCI-H226 lung = system: NCI-H226 lung
NCI-H522 lung = system: NCI-H522 lung
HT29 colon = system: HT29 colon
DU-145 prostate = system: DU-145 prostate
OVCAR-3 ovarian = system: OVCAR-3 ovarian
MDA-MB-435 = system: MDA-MB-435
786-0 renal = system: 786-0 renal
OVCAR-4 ovarian = system: OVCAR-4 ovarian
SF-295 CNS = system: SF-295 CNS
ACHN renal = system: ACHN renal
HOP-62 NSCLC = system: HOP-62 NSCLC
OVCAR-8 ovarian = system: OVCAR-8 ovarian
SK-MEL-5 melanoma = system: SK-MEL-5 melanoma
MALME-3M melanoma = system: MALME-3M melanoma
NCI-H23 lung = system: NCI-H23 lung
SF-539 CNS = system: SF-539 CNS
EKVX NSCLC = system: EKVX NSCLC
OVCAR-5 ovarian = system: OVCAR-5 ovarian
KM12 colon = system: KM12 colon
IGROV1 ovarian = system: IGROV1 ovarian
SK-OV-3 ovarian = system: SK-OV-3 ovarian
K-562 leukemia = system: K-562 leukemia
LOX IMVI melanoma = system: LOX IMVI melanoma
T-47D breast = system: T-47D breast
SNB-19 CNS = system: SNB-19 CNS
HOP-92 NSCLC = system: HOP-92 NSCLC
SNB-75 CNS = system: SNB-75 CNS
MOLT-4 leukemia = system: MOLT-4 leukemia
SR leukemia = system: SR leukemia
SN12C renal = system: SN12C renal
MDA-MB-231 breast = system: MDA-MB-231 breast
HS 578T breast = system: HS 578T breast
SW-620 colon = system: SW-620 colon
UACC-257 melanoma = system: UACC-257 melanoma
HL-60(TB) leukemia = system: HL-60(TB) leukemia
MCF7 breast = system: MCF7 breast
M14 melanoma = system: M14 melanoma
SK-MEL-28 melanoma = system: SK-MEL-28 melanoma
CCRF-CEM leukemia = system: CCRF-CEM leukemia
UACC-62 melanoma = system: UACC-62 melanoma
HCT-116 colon = system: HCT-116 colon
U251 CNS = system: U251 CNS
UO-31 renal = system: UO-31 renal
TK-10 renal = system: TK-10 renal
A549 NSCLC = system: A549 NSCLC
SF-268 CNS = system: SF-268 CNS
HCT-15 colon = system: HCT-15 colon
RXF 393 renal = system: RXF 393 renal
RPMI-8226 leukemia = system: RPMI-8226 leukemia
HCC-2998 colon = system: HCC-2998 colon
NCI-H460 lung = system: NCI-H460 lung
PC-3 prostate = system: PC-3 prostate
MDA-N = system: MDA-N
COLO 205 colon = system: COLO 205 colon
CAKI-1 renal = system: CAKI-1 renal
SK-MEL-2 melanoma = system: SK-MEL-2 melanoma
BT-549 breast = system: BT-549 breast

Nc1cc2c3c(cccc3c1)NC2=O
TGI (NCI/ADR-RES ovarian): > 100 µM
TGI (A498 renal): > 100 µM
TGI (NCI-H226 lung): > 100 µM
TGI (NCI-H522 lung): 74 µM
TGI (HT29 colon): > 100 µM
TGI (DU-145 prostate): > 100 µM
TGI (OVCAR-3 ovarian): > 100 µM
TGI (MDA-MB-435): > 100 µM
TGI (786-0 renal): > 100 µM
TGI (OVCAR-4 ovarian): > 100 µM
TGI (SF-295 CNS): > 100 µM
TGI (ACHN renal): > 100 µM
TGI (HOP-62 NSCLC): > 100 µM
TGI (OVCAR-8 ovarian): > 100 µM
TGI (SK-MEL-5 melanoma): > 100 µM
TGI (MALME-3M melanoma): > 100 µM
TGI (NCI-H23 lung): > 100 µM
TGI (SF-539 CNS): > 100 µM
TGI (EKVX NSCLC): > 100 µM
TGI (OVCAR-5 ovarian): > 100 µM
TGI (KM12 colon): > 100 µM
TGI (IGROV1 ovarian): > 100 µM
TGI (SK-OV-3 ovarian): > 100 µM
TGI (K-562 leukemia): > 100 µM
TGI (LOX IMVI melanoma): > 100 µM
TGI (T-47D breast): > 100 µM
TGI (SNB-19 CNS): > 100 µM
TGI (HOP-92 NSCLC): > 100 µM
TGI (SNB-75 CNS): > 100 µM
TGI (MOLT-4 leukemia): > 100 µM
TGI (SR leukemia): > 100 µM
TGI (SN12C renal): > 100 µM
TGI (MDA-MB-231 breast): > 100 µM
TGI (HS 578T breast): > 100 µM
TGI (SW-620 colon): > 100 µM
TGI (UACC-257 melanoma): > 100 µM
TGI (HL-60(TB) leukemia): > 100 µM
TGI (MCF7 breast): > 100 µM
TGI (M14 melanoma): > 100 µM
TGI (SK-MEL-28 melanoma): > 100 µM
TGI (CCRF-CEM leukemia): > 100 µM
TGI (UACC-62 melanoma): > 100 µM
TGI (HCT-116 colon): > 100 µM
TGI (U251 CNS): > 100 µM
TGI (UO-31 renal): > 100 µM
TGI (TK-10 renal): > 100 µM
TGI (A549 NSCLC): > 100 µM
TGI (SF-268 CNS): > 100 µM
TGI (HCT-15 colon): > 100 µM
TGI (RXF 393 renal): > 100 µM
TGI (RPMI-8226 leukemia): > 100 µM
TGI (HCC-2998 colon): > 100 µM
TGI (NCI-H460 lung): > 100 µM
TGI (PC-3 prostate): > 100 µM
TGI (MDA-N): > 100 µM
TGI (COLO 205 colon): > 100 µM
TGI (CAKI-1 renal): > 100 µM
TGI (SK-MEL-2 melanoma): > 100 µM

O=C1NC(=S)NC(=O)C1C(c1ccc(Cl)cc1)C1C(=O)NC(=S)NC1=O
TGI (NCI/ADR-RES ovarian): > 100 µM
TGI (A498 renal): > 100 µM
TGI (NCI-H226 lung): > 100 µM
TGI (NCI-H522 lung): > 100 µM
TGI (HT29 colon): > 100 µM
TGI (DU-145 prostate): > 100 µM
TGI (OVCAR-3 ovarian): > 100 µM
TGI (MDA-MB-435): > 100 µM
TGI (786-0 renal): > 100 µM
TGI (OVCAR-4 ovarian): > 100 µM
TGI (SF-295 CNS): > 100 µM
TGI (ACHN renal): > 100 µM
TGI (HOP-62 NSCLC): > 100 µM
TGI (OVCAR-8 ovarian): > 100 µM
TGI (SK-MEL-5 melanoma): > 100 µM
TGI (MALME-3M melanoma): > 100 µM
TGI (NCI-H23 lung): > 100 µM
TGI (EKVX NSCLC): > 100 µM
TGI (OVCAR-5 ovarian): > 100 µM
TGI (KM12 colon): > 100 µM
TGI (IGROV1 ovarian): > 100 µM
TGI (K-562 leukemia): > 100 µM
TGI (LOX IMVI melanoma): > 100 µM
TGI (T-47D breast): > 100 µM
TGI (SNB-19 CNS): > 100 µM
TGI (HOP-92 NSCLC): > 100 µM
TGI (MOLT-4 leukemia): > 100 µM
TGI (SN12C renal): > 100 µM
TGI (MDA-MB-231 breast): > 100 µM
TGI (SW-620 colon): > 100 µM
TGI (UACC-257 melanoma): > 100 µM
TGI (HL-60(TB) leukemia): > 100 µM
TGI (MCF7 breast): > 100 µM
TGI (M14 melanoma): > 100 µM
TGI (SK-MEL-28 melanoma): > 100 µM
TGI (CCRF-CEM leukemia): > 100 µM
TGI (UACC-62 melanoma): > 100 µM
TGI (HCT-116 colon): > 100 µM
TGI (U251 CNS): > 100 µM
TGI (BT-549 breast): > 100 µM
TGI (UO-31 renal): > 100 µM
TGI (TK-10 renal): > 100 µM
TGI (A549 NSCLC): > 100 µM
TGI (HCT-15 colon): > 100 µM
TGI (RXF 393 renal): > 100 µM
TGI (RPMI-8226 leukemia): > 100 µM
TGI (NCI-H460 lung): > 100 µM
TGI (PC-3 prostate): > 100 µM
TGI (MDA-N): > 100 µM
TGI (COLO 205 colon): > 100 µM
TGI (CAKI-1 renal): > 100 µM
TGI (SK-MEL-2 melanoma): > 100 µM

From PubChem BioAssay (NCI)
